What is called bioavailability is dose-corrected exposure relative to a reference, in per cent. A low value points to poor availability.

SMILES strings stand for the structures. “Also recorded” adds a separate entry of the source.

The source of these data is patent US20250388571A1, “AMP-ACTIVATED PROTEIN KINASE MODULATOR COMPOUNDS AND USES THEREOF” (Biolexis Therapeutics, Inc., priority 2024, published 2025).

Data set [1] in a line: PK oral bioavailability experiment, rat. Type of data set: in vivo, male Wistar rat. The method, then: A total of 18 male Wistar rats were allotted for the study. Animals were allotted in to 2 groups of 9 rat per each group. In each group, first set of three animals were used for PK study, next set of three and followed by other set of three animals were used for 0.5 h and 1 h brain, CSF, and blood collection purpose for intravenous and oral groups, respectively. On day of dosing all the animals were fasted overnight.
Approximately 0.3 mL of blood sample from each animal was collected via jugular vein at predetermined time points at 0.083 (only IV), 0.25, 0.5, 1, 2, 4, 6, 8 and 24 h intervals in pre-labeled Eppendorf tubes containing anticoagulant K2EDTA (20 μL per mL of blood). Blood sample was centrifuged at 5000 rpm for 10 min under refrigeration (2-4° C.) to obtain plasma. For brain and CSF uptake study, after 0.5 h and 1 h CSF and whole brain was withdrawn, and brain tissue was homogenized as a terminal sampling. Blood samples were centrifuged under refrigeration (2-4° C.) within 0.5 h to obtain plasma. The separated plasma samples were collected in pre labeled tubes within 60 min of separation and stored at −20° C. up to 24 h. Post 24 h sample collection, all plasma samples were transferred to deep freezer custodian to store below or at −70° C. till shipment.
Brain tissues were blotted and dried and then transferred to 15 mL falcon tubes. Initially all tissue samples were stored at −20±3° C. Later, all brain tissue samples were homogenized with PBS at 1:4 ratio and the Brain homogenate was transferred to Deep freezer (−70±10° C.) and stored until bioanalysis.
The PK parameters were evaluated using Phoenix WinNonlin® Ent-Version 8.3 by non-compartmental analysis.

Data set [2] has as its system human skeletal muscle cells (HSKM cells). The experiment in a line: Glucose uptake assay, human skeletal muscle cells. Type of data set: cell-based. The procedure: FIGS. 1-4 show results for cells treated with differing doses of representative compounds of Structure (I) (i.e., compound I-11 in FIG. 1 and compound I-7 in FIG. 2) as well reference compounds (i.e., PF-06409577 in FIG. 3 and MK-8722 in FIG. 4). […] Cells were starved for 3 hours in high glucose DMEM without FBS, then treated with indicated compounds in DMEM without FBS/glucose for 1 hour, and glucose uptake was detected using an uptake glucose kit (Promega). The bars show (from left to right) concentrations of 100 μM, 33 μM, 11 μM, 3.7 μM, 1.23 μM, 0.41 μM, 0.14 μM, 0.045 μM, 0.015 μM, 0.005 μM, 0 μM, and insulin.
Human skeletal myoblasts were obtained (Thermofisher; BYU) and cultured in DMEM/F12 medium with 10% FBS. For differentiation, 2% horse serum low glucose DMEM medium was employed for 72 hours. Human cardiomyocytes cells (HCM cells; Promocell) were cultured in myocyte growth medium (Promocell). Human preadipocyte HWP-c cells (Promocell) were obtained from upper arm of diabetic II donor. Human preadipocyte HWP-c cells (Promocell) were obtained from abdomen of diabetic II donor. For differentiating human preadipocytes, cells were cultured in preadipocyte growth medium to total confluency stage. The growth medium was replaced with preadipocyte differentiation medium for 72 hours, then changed to PromoCell adipocyte nutrition medium to complete the differentiation process. THLE-2 cells were cultured in BEGM from Lonza/Clonetics Corporation, Walkersville, MD 21793 (BEGM Bullet Kit; CC3170). HepG2, L6 and C2Cl2 cells were cultured in EMEM medium.
After differentiation myoblasts, preadipocyte cells were starved by removing the medium and adding 100 μL DMEM without serum. The medium was then replaced with 100 μL DMEM±1 μM insulin at indicated concentration of representative compounds without serum or glucose. The cells were then incubated for 1 hour at 37° C. in 5% CO2. The cells were then removed from the medium and 50 μL of 0.1 mM 2DG in PBS was added. Cells were incubated for 30 minutes at 25° C. 25 μL of Stop Buffer was added and samples were mixed. 25 μL of Neutralization Buffer was then added and mixed. 100 μL of 2DG6P Detection Reagent was then added and mixed. Samples were then incubated for 1 hour at 25° C. Luminescence was then recorded with 0.3-1 second integration on a luminometer.

Data set [3] concerns AMPK signal pathway in human cardiac myocytes (HCM). The experiment in a line: Western blot assay, human cardiomyocytes. Type of data set: cell-based. On the technique in general: In western blotting, separated proteins are transferred to a membrane and probed.
For the next data set, the system named is HepG2 cells. The experiment in a line: CyQUANT Cytotoxicity Assay (G6PD assay), HepG2. Conditions: treated 2 hours.
A further data set concerns HCM cells. The experiment in a line: CyQUANT Cytotoxicity Assay (G6PD assay), HCM. To be noted: treated 2 hours.

On to `O=c1[nH]c(-c2c[nH]c3cc(F)c(-c4ccc(C5(O)CCC5)cc4)c(F)c23)no1` [Compound I-11, 3-(4,6-difluoro-5-(4-(1-hydroxycyclobutyl)phenyl)-1H-indol-3-yl)-1,2,4-oxadiazol-5(4H)-one], for which the “systemic exposure following oral administration” value in data set [1] (5 mg/kg oral) was “low systemic exposure”. In addition, the “concentrations in brain tissue” value in data set [1] (0.5 h and 1 h) was “no concentrations in brain tissue”. Moreover, the bioavailability in data set [1] (male, Wistar, plasma, 5 mg/kg oral vs 1 mg/kg intravenous) stood at 6%. Also, the “glucose uptake compared with reference compounds, based on RLU values” in data set [2] is on record as “much more glucose uptake compared with reference compounds”. For the same compound, in data set [2] (100 μM to 0.005 μM, 1 hour), the “dose dependence of glucose uptake (printed: activation of insulin / AMPK activation)” value is reported as “dose-dependent manner; also recorded: dose dependence”. The glucose uptake result in data set [2] (starved, treated 1 hour) is recorded as “induced glucose uptake; also recorded: increased glucose uptake”. Besides, the “p-ACC/p-AMPK and AMPKα2β2γ3 expression” value in data set [3] is reported as “did not activate”. In addition, the “toxicity compared to reference compounds MK-8722 and PF-06409577 (G6PD release)” value with HepG2 cells and in the data set on HCM cells was “less toxicity” throughout.
